Data published in ChEMBL document CHEMBL3232855, “The discovery of N-((2H-tetrazol-5-yl)methyl)-4-((R)-1-((5r,8R)-8-(tert-butyl)-3-(3,5-dichlorophenyl)-2-oxo-1,4-diazaspiro[4.5]dec-3-en-1-yl)-4,4-dimethylpentyl)benzamide (SCH 900822): a potent and selective glucagon receptor antagonist” (J Med Chem, 2014).

How the values were obtained:
[1] = biological target: T1, Glucagon receptor (Homo sapiens, UniProt P47871); test: Antagonist activity at human GCGR expressed in CHO cells assessed as inhibition of glucagon-stimulated cAMP production preincubated for 30 mins followed by glucagon induction measured after 45 mins by LANCE assay; assay type: functional, cell-based
[2] = biological target: T2, Glucagon-like peptide 1 receptor (Homo sapiens, UniProt P43220); details: CHO, at 10 µM
Description: Antagonist activity at human GLP-1R expressed in CHO cells assessed as inhibition of GLP-1-stimulated cAMP production at 10 uM preincubated for 30 mins followed by GLP-1 induction measured after 45 mins by LANCE assay relative to control

[3] = system: Homo sapiens; test: Antidiabetic activity in human assessed as inhibition of exogenous glucagon-stimulated glucose excursion at 200 mg, po qd relative to control; assay type: functional
[4] = system: Homo sapiens; test: Antidiabetic activity in human assessed as inhibition of exogenous glucagon-stimulated glucose excursion at 1000 mg, po qd relative to control; assay type: functional
[5] = biological target: Glucagon receptor (Mus musculus, UniProt Q61606); assay type: cell membranes, Liver, Membrane
Description: Displacement of [125I]-glucagon from GCGR in mouse liver membranes after 60 mins by scintillation counting analysis

[6] = biological target: T1, Glucagon receptor; test: biochemical; assay type: cell-based, CHO
Description: Displacement of [125I]-glucagon from recombinant human GCGR expressed in CHO cells after 60 mins by scintillation counting analysis

[7] = biological target: T2, Glucagon-like peptide 1 receptor; test: Antagonist activity at human GLP-1R expressed in CHO cells assessed as inhibition of GLP-1-stimulated cAMP production preincubated for 30 mins followed by GLP-1 induction measured after 45 mins by LANCE assay; assay type: functional, cell-based

Sequence of Glucagon receptor (Mus musculus, UniProt Q61606) (Q61606 whole entry): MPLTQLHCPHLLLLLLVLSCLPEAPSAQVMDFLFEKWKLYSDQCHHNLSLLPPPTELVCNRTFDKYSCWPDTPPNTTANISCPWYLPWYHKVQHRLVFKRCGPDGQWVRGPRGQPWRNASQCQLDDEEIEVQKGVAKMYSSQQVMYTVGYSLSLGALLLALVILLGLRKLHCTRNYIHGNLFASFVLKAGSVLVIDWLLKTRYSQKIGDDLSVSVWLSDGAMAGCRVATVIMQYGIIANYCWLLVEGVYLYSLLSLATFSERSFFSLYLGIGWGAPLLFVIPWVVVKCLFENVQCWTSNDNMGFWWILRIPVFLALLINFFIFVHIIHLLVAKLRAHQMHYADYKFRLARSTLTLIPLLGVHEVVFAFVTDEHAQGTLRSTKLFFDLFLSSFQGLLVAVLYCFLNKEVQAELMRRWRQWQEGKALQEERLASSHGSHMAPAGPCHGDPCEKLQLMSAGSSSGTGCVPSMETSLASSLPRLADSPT
T2 sequence (P43220 whole entry): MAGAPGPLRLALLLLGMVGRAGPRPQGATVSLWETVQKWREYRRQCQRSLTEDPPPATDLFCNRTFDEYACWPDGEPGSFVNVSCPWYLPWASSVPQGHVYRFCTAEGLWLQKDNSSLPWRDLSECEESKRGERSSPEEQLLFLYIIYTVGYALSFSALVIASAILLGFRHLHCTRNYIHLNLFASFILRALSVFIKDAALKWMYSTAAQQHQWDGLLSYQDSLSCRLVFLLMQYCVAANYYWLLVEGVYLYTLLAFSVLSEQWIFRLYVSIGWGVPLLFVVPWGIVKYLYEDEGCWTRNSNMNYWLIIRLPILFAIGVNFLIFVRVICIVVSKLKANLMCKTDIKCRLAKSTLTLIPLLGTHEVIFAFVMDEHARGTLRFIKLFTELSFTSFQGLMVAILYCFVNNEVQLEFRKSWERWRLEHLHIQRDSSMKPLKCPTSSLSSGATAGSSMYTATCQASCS
T1 sequence (P47871 whole entry): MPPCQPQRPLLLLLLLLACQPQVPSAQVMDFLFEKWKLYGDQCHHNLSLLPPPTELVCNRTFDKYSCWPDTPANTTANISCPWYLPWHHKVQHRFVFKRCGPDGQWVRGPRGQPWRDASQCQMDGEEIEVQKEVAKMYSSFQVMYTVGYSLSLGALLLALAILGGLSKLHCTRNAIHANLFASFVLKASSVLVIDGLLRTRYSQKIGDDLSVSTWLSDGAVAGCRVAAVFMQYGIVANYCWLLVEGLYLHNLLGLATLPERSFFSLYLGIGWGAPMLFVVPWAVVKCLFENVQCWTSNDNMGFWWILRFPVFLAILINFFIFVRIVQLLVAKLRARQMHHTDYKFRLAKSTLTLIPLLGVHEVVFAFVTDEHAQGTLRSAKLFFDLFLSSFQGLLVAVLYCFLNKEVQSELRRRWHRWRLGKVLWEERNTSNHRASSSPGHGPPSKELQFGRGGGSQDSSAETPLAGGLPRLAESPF

Row | IC50 [1] [nM] | inhibition [2] [%] | IC50 [5] [nM] | IC50 [6] [nM] | IC50 [7] [nM] | SMILES | inhibition (INH) [3] [%] | inhibition (INH) [4] [%]
1 | 1600 | < 50 |  |  |  | CC(C)(C)[C@H]1CC[C@]2(CC1)N=C(c1ccc(Cl)c(Cl)c1)C(=O)N2Cc1ccc(C(=O)NCCC(=O)O)cc1 |  | 
2 | 1900 | < 50 |  |  |  | CC(C)(C)[C@H]1CC[C@]2(CC1)N=C(c1ccc(OC(F)(F)F)cc1)C(=O)N2Cc1ccc(C(=O)NCCC(=O)O)cc1 |  | 
3 | 6800 | < 50 |  |  |  | CC(C)(C)[C@H]1CC[C@]2(CC1)N=C(c1ccccc1Cl)C(=O)N2Cc1ccc(C(=O)NCCC(=O)O)cc1 |  | 
4 | 1900 | < 50 |  |  |  | CC(C)(C)[C@H]1CC[C@]2(CC1)N=C(c1ccc(F)cc1)C(=O)N2Cc1ccc(C(=O)NCCC(=O)O)cc1 |  | 
5 | 1400 | < 50 | > 10000 | 940 |  | CC(C)(C)[C@H]1CC[C@]2(CC1)N=C(c1ccc(Cl)cc1)C(=O)N2Cc1ccc(C(=O)NCCC(=O)O)cc1 |  | 
6 | 510 | < 50 | 10000 |  |  | CC(C)(C)[C@H]1CC[C@]2(CC1)N=C(c1cccc(C(F)(F)F)c1)C(=O)N2Cc1ccc(C(=O)NCCC(=O)O)cc1 |  | 
7 | 800 | < 50 | 9600 |  |  | CC(C)(C)[C@H]1CC[C@]2(CC1)N=C(c1ccc(C(F)(F)F)cc1)C(=O)N2Cc1ccc(C(=O)NCCC(=O)O)cc1 |  | 
8 | 730 | < 50 | > 10000 | > 10000 |  | CC(C)(C)[C@H]1CC[C@]2(CC1)N=C(c1ccccc1F)C(=O)N2Cc1ccc(C(=O)NCCC(=O)O)cc1 |  | 
9 | 3200 | < 50 |  |  |  | CC(C)(C)[C@H]1CC[C@]2(CC1)N=C(c1ccccc1)C(=O)N2Cc1ccc(C(=O)NCCC(=O)O)cc1 |  | 
10 | 430 |  | 2500 | 85 | 7800 | C[C@H](c1ccc(C(=O)NCCC(=O)O)cc1)N1C(=O)C(c2ccc(F)cc2)=N[C@]12CC[C@@H](C(C)(C)C)CC2 |  | 
11 | 770 | < 50 | > 10000 | 770 |  | CC(C)(C)[C@H]1CC[C@]2(CC1)N=C(c1cccc(Cl)c1)C(=O)N2Cc1ccc(C(=O)NCCC(=O)O)cc1 |  | 

Second part, the compound before the results:

Row | SMILES | IC50 [1] [nM] | inhibition [2] [%] | IC50 [5] [nM] | IC50 [6] [nM] | IC50 [7] [nM] | inhibition (INH) [3] [%] | inhibition (INH) [4] [%]
12 | CCCc1c(C(C)C)cc(C(C)C)c(C(C)O)c1-c1ccc(F)cc1 (single isomer, unassigned; (+)) |  |  |  |  |  | 59 | 100
13 | CC(C)(C)[C@H]1CC[C@]2(CC1)N=C(c1cc(Cl)cc(Cl)c1)C(=O)N2Cc1ccc(C(=O)NCCC(=O)O)cc1 | 290 | < 50 | > 10000 | 520 |  |  | 
14 | C[C@H](c1ccc(C(=O)NCCC(=O)O)cc1)N1C(=O)C(c2cccc(Cl)c2)=N[C@]12CC[C@@H](C(C)(C)C)CC2 | 480 |  | 3300 | 130 | 3900 |  | 
15 | C[C@H](c1ccc(C(=O)NCCC(=O)O)cc1)N1C(=O)C(c2cc(Cl)ccc2F)=N[C@]12CC[C@@H](C(C)(C)C)CC2 | 750 |  | 4600 | 340 | > 10000 |  | 
16 | CC(C)(C)CC[C@H](c1ccc(C(=O)NCc2nn[nH]n2)cc1)N1C(=O)C(c2cc(F)cc(F)c2)=N[C@]12CC[C@@H](C(C)(C)C)CC2 | 110 |  | 140 | 23 | > 10000 |  | 
17 | CCCC[C@H](c1ccc(C(=O)NCc2nn[nH]n2)cc1)N1C(=O)C(c2cc(Cl)cc(Cl)c2)=N[C@]12CC[C@@H](C(C)(C)C)CC2 | 380 |  | 420 | 23 | > 10000 |  | 
18 | C[C@H](c1ccc(C(=O)NCc2nnn[nH]2)cc1)N1C(=O)C(c2cc(Cl)cc(Cl)c2)=N[C@]12CC[C@@H](C(C)(C)C)CC2 | 180 | 9 | 400 | 130 | > 10000 |  | 
19 | C[C@H](c1ccc(C(=O)NCCC(=O)O)cc1)N1C(=O)C(c2cccc(C(F)(F)F)c2)=N[C@]12CC[C@@H](C(C)(C)C)CC2 | 280 |  | 2200 | 720 | 6300 |  | 
20 | Cc1cccc(C2=N[C@]3(CC[C@@H](C(C)(C)C)CC3)N([C@H](C)c3ccc(C(=O)NCCC(=O)O)cc3)C2=O)c1 | 490 |  | 1700 | 150 | > 10000 |  | 
21 | C[C@H](c1ccc(C(=O)NCCC(=O)O)cc1)N1C(=O)C(c2cc(Cl)cc(Cl)c2)=N[C@]12CC[C@@H](C(C)(C)C)CC2 | 140 |  | 1200 | 96 | 6400 |  | 
22 | CC(C)(C)CC[C@H](c1ccc(C(=O)NCCC(=O)O)cc1)N1C(=O)C(c2cc(Cl)cc(Cl)c2)=N[C@]12CC[C@@H](C(C)(C)C)CC2 | 48 |  | 520 | 16 | 2000 |  | 
23 | C[C@H](c1ccc(C(=O)NCCC(=O)O)cc1)N1C(=O)C(c2ccc(F)c(Cl)c2)=N[C@]12CC[C@@H](C(C)(C)C)CC2 | 440 |  | 2300 | 44 | 4300 |  | 
24 | CCCCC[C@H](c1ccc(C(=O)NCc2nn[nH]n2)cc1)N1C(=O)C(c2cc(Cl)cc(Cl)c2)=N[C@]12CC[C@@H](C(C)(C)C)CC2 | 130 |  | 310 | 24 | > 10000 |  | 
25 | COc1ccc2cc(-c3cc(-c4cc(Cl)cc(Cl)c4)nn3[C@@H](C)c3ccc(C(=O)NCCC(=O)O)cc3)ccc2c1 [MK-0893] |  |  |  |  |  | 59 | 100
26 | CC(C)(C)CC[C@H](c1ccc(C(=O)NCc2nn[nH]n2)cc1)N1C(=O)C(c2ccc(C(F)(F)F)cc2)=N[C@]12CC[C@@H](C(C)(C)C)CC2 | 160 |  | 190 | 7 | > 10000 |  | 
27 | C[C@H](c1ccc(C(=O)NCCC(=O)O)cc1)N1C(=O)C(c2cccc(C3CC3)c2)=N[C@]12CC[C@@H](C(C)(C)C)CC2 | 340 |  | 1700 | 56 | > 10000 |  | 
28 | CC(C)[C@H]1CC[C@]2(CC1)N=C(c1cc(Cl)cc(Cl)c1)C(=O)N2[C@H](CCC(C)(C)C)c1ccc(C(=O)NCc2nn[nH]n2)cc1 | 52 |  | 200 | 31 | > 10000 |  | 
29 | C[C@H](c1ccc(C(=O)NCCC(=O)O)cc1)N1C(=O)C(c2cc(F)cc(Cl)c2)=N[C@]12CC[C@@H](C(C)(C)C)CC2 | 110 |  | 810 | 6 | 5600 |  | 
30 | CC(C)C[C@H](c1ccc(C(=O)NCc2nn[nH]n2)cc1)N1C(=O)C(c2cc(Cl)cc(Cl)c2)=N[C@]12CC[C@@H](C(C)(C)C)CC2 | 760 |  | 420 | 15 | > 10000 |  | 
31 | CC(C)(C)CC[C@H](c1ccc(C(=O)NCc2nn[nH]n2)cc1)N1C(=O)C(c2cc(F)cc(Cl)c2)=N[C@]12CC[C@@H](C(C)(C)C)CC2 | 42 |  | 160 | 10 | > 10000 |  | 
32 | C[C@H](c1ccc(C(=O)NCCC(=O)O)cc1)N1C(=O)C(c2cccc(F)c2)=N[C@]12CC[C@@H](C(C)(C)C)CC2 | 560 |  | 4400 | 490 | > 10000 |  | 
33 | CC1(CC[C@H](c2ccc(C(=O)NCc3nn[nH]n3)cc2)N2C(=O)C(c3cc(Cl)cc(Cl)c3)=N[C@]23CC[C@@H](C(C)(C)C)CC3)CC1 | 100 |  | 110 | 17 | > 10000 |  | 
34 | C[C@H](c1ccc(C(=O)NC[C@H](O)C(=O)O)cc1)N1C(=O)C(c2cc(Cl)cc(Cl)c2)=N[C@]12CC[C@@H](C(C)(C)C)CC2 | > 10000 |  | 1500 | 160 | > 10000 |  | 
35 | C[C@H](c1ccc(C(=O)NCCC(=O)O)cc1)N1C(=O)C(c2ccccc2)=N[C@]12CC[C@@H](C(C)(C)C)CC2 | 630 |  | 5300 | 360 | > 10000 |  | 
